Laboratory results as given in publication PMC8765048 (JCI Insight, 2022).
Read-outs that look alike come from different tables or passages of the source.

Experiments:
[1] = system: SARS-CoV-2 B.1.1.7 (Alpha); assay: microbe, parasite or virus in culture; format: cell-based
[2] = system: SARS-CoV-2 B.1.617.2 (Delta); assay: microbe, parasite or virus in culture; format: cell-based
SARS-CoV-2 P.2 (Zeta) [3] = assay: microbe, parasite or virus in culture; format: cell-based
[4] = system: SARS-CoV-2 B.1.427 (Epsilon); assay: microbe, parasite or virus in culture; format: cell-based
SARS-CoV-2 WA1 = assay: microbe, parasite or virus in culture; format: cell-based
[5] = system: SARS-CoV-2 B.1.351 (Beta); assay: microbe, parasite or virus in culture; format: cell-based
[6] = system: SARS-CoV-2 B.1.617.2 (Delta); assay: microbe, parasite or virus in culture; format: cell-based; remark: listed apart in the source
SARS-CoV-2 P.2 (Zeta) [7] = assay: microbe, parasite or virus in culture; format: cell-based; remark: listed apart in the source
SARS-CoV-2 [8] = assay: microbe, parasite or virus in culture; format: cell-based
SARS-CoV-2 [9] = assay: Combinatorial sangivamycin/remdesivir efficacy testing, Caco-2 cells; format: cell-based; conditions: Severe acute respiratory syndrome coronavirus 2, Caco-2; read-out: IC50 (nM), S:R by [Sangivamycin]
[10] = CellTiter-Glo cell viability assay; format: cell-based; conditions: human, A549 cells; A549, 72 h
[11] = CellTiter-Glo cell viability assay; format: cell-based; conditions: human, HepG2 cells; HepG2, 72 h
[12] = CellTiter-Glo cell viability assay; format: cell-based; conditions: human, Huh-7 cells; Huh-7, 72 h
[13] = CellTiter-Glo cell viability assay; format: cell-based; conditions: Primary human hepatocytes
[14] = CellTiter-Glo cell viability assay, average of 8 cell types; format: cell-based; conditions: human (7 cell types) and grivet (Vero E6), average ± SEM, n = 8 cell types
multiple cell types [15] = assay: as above; format: cell-based; conditions: average ± SEM, n = 8 cell types
KCNH2 (hERG) = target: T1, KCNH2 (hERG) (Homo sapiens, UniProt Q12809); assay: Potassium channel inhibition testing (QPatch HTX electrophysiology); format: cell-based
T1 construct: expressed in transfected cells; host or cells: HEK293T
T1 sequence (Q12809 whole entry): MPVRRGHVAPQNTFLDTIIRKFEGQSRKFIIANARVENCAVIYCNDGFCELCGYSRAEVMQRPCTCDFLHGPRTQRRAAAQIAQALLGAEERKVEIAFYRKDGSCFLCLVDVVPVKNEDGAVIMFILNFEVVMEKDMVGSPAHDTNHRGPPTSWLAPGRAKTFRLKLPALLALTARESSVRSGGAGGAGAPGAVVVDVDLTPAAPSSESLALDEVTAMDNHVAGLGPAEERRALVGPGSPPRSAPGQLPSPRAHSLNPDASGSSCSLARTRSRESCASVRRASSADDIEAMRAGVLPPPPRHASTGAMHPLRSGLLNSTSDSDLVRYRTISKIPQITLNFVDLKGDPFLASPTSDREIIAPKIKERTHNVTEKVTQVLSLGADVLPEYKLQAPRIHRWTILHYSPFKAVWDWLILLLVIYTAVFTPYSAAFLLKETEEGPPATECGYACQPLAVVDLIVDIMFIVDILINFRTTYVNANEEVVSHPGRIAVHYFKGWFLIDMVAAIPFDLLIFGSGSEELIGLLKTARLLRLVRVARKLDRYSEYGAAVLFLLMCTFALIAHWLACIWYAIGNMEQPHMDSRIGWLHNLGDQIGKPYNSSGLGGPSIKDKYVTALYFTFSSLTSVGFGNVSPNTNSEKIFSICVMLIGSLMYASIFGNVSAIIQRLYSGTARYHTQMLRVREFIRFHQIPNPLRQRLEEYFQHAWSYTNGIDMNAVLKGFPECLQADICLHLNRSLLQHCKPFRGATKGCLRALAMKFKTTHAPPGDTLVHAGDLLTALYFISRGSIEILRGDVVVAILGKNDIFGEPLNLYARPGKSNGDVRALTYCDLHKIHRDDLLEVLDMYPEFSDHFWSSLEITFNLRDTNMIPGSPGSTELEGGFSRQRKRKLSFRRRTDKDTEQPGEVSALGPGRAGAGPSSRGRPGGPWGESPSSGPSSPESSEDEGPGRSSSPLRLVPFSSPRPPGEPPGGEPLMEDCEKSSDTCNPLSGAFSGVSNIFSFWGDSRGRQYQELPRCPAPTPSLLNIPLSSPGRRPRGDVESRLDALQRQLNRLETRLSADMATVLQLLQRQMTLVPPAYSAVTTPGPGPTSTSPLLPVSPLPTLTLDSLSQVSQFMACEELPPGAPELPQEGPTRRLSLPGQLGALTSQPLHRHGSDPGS
Excerpt: The KCNH2 (hERG) functions as the α subunit of a cardiac potassium channel. Its inhibition by drugs has been implicated in fatal ventricular tachyarrhythmia ([31]). As a predictor of cardiotoxicity and genotoxicity, we therefore evaluated KCNH2 (hERG) inhibition and genotoxicity in the AMES mutagenicity assay.
Ruling out inhibition of KCNH2 (hERG) by a novel compound is a mandatory step in establishing drug safety. The effect of sangivamycin on KCNH2-derived cardiac potassium channels was assessed using HEK293T cells and the QPatch HTX electrophysiology platform (Evotech), following the manufacturer’s instructions. Sangivamycin was tested at 6 concentrations (cumulative concentration response, high test concentration of 10 μM). The percentage change in potassium channel tail current was used to calculate channel inhibition.

Salmonella typhimurium = assay: AMES mutagenicity testing (Salmonella typhimurium reverse mutation assay); format: cell-based
Procedure: The standard AMES (Salmonella typhimurium reverse mutation assay, ref. [43]) was performed by Cyprotex to evaluate the mutagenic potentials of sangivamycin. Approximately 10 million bacteria were exposed in triplicate to sangivamycin (6 concentrations, 1 mg/mL high test concentration), a negative control (vehicle), and a positive control for 90 minutes in medium containing a low concentration of histidine (sufficient for about 2 doublings). The cultures were then diluted into indicator medium lacking histidine and dispensed into 48 wells of 384-well plates (microplate format). Plates were incubated for 48 hours at 37°C. In the microsuspension assay, cells that undergo a mutagenic reversion grow, resulting in a color change that is scored as positive wells. Wells with bacterial growth were counted and compared with those with vehicle control. A dose-dependent increase in the number of colonies of at least 2-fold over baseline (mean + SD of the vehicle control) indicated a positive response.

[16] = Turbidimetric aqueous solubility screening; format: physicochemical; conditions: PBS, pH 7.4, PBS pH 7.4, 2 hours at 37°C, high test concentration 500 μM
Procedure: Aqueous solubility of sangivamycin was measured using a high-throughput turbidimetric assay performed by Cyprotex. Initially, sangivamycin stock DMSO solution was diluted in DMSO to produce a range of concentrations. These dilutions were added to PBS at pH 7.4 (high test concentration 500 μM) and incubated for 2 hours at 37°C. At the end of the incubation period, the absorbance at 620 nm was measured for each concentration for 2 replicates to determine turbidity from precipitate formation.

[17] = system: Lassa virus, Ebola virus, Marburg virus, cowpox virus and vaccinia virus; conditions: Vero E6 and Huh-7 cells; cited from earlier work
[18] = mice, cited from earlier work
[19] = system: Huh-7 (human hepatocarcinoma); assay: CellTox Green Cytotoxicity Assay; conditions: ratio > 1 cytostatic, ≤ 1 cytotoxic
multiple cell types [20] = assay: CellTox Green Cytotoxicity Assay, average of 6 cell types; conditions: average ± SEM, n = 6 cell lines
[21] = Severe acute respiratory syndrome coronavirus 2, Vero C1008, 24 h
[22] = Severe acute respiratory syndrome coronavirus 2, VeroE6/TMPRSS2, 18 h
[23] = Severe acute respiratory syndrome coronavirus 2, Calu-3, 72 h
[24] = Severe acute respiratory syndrome coronavirus 2, Calu-3, 48 h
[25] = Severe acute respiratory syndrome coronavirus 2, Calu-3, 24 h

In the case of NC(=O)c1cn([C@@H]2O[C@H](CO)[C@@H](O)[C@H]2O)c2ncnc(N)c12 [Sangivamycin, sangivamycin], the “SI (selectivity index, CC50/IC50)” value ([1]; B.1.1.7 (Alpha), Vero E6 cells) is reported as greater than 39.0, the IC50 [1, 21] is reported as 15.4 nM and the IC90 [1, 21] is reported as 164 nM. For the same compound, the IC50 [2] was 80.4 nM, the “SI (selectivity index, CC50/IC50)” value ([2]; B.1.617.2 (Delta), Vero E6/TMPRSS2 cells) was greater than 7.5 and the IC50 [2, 22] was 80 nM. For the same compound, the IC90 [2, 22] was 263 nM, the “SI (selectivity index, CC50/IC50)” value (SARS-CoV-2 P.2 (Zeta) [3]; P.2 (Zeta), Vero E6 cells) was greater than 20.1 and the IC50 (SARS-CoV-2 P.2 (Zeta) [3]; [21]) was 29.8 nM. The IC90 (SARS-CoV-2 P.2 (Zeta) [3]; [21]) was 125 nM, the “SI (selectivity index, CC50/IC50)” value ([4]; B.1.427 (Epsilon), Vero E6 cells) was greater than 32.3 and the IC50 [4, 21] was 18.6 nM. It also gave an IC90 [4, 21] of 212 nM, an IC50 (SARS-CoV-2 WA1; [23]) of 61 ± 8 nM and an IC90 (SARS-CoV-2 WA1; [23]) of 190 ± 23 nM. For the same compound, the “SI (selectivity index, CC50/IC50)” value (SARS-CoV-2 WA1; WA1, Calu-3 cells) was 5.3, the “SI (selectivity index, CC50/IC50)” value ([5]; B.1.351 (Beta), Calu-3 cells) was greater than 10.1 and the IC50 [5, 24] was 59.4 nM. The IC90 [5, 24] was 135 nM, the “SI (selectivity index, CC50/IC50)” value ([6]; B.1.617.2 (Delta), Calu-3 cells) was greater than 7.6 and the IC50 [6, 25] was 79 nM. The IC90 [6, 25] was 290 nM, the “SI (selectivity index, CC50/IC50)” value (SARS-CoV-2 P.2 (Zeta) [7]; P.2 (Zeta), Calu-3 cells) was greater than 15.2 and the IC50 (SARS-CoV-2 P.2 (Zeta) [7]; [25]) was 39.6 nM. For the same compound, the IC90 (SARS-CoV-2 P.2 (Zeta) [7]; [25]) was 122 nM, the “SI calculated with the average CellTiter-Glo values” (SARS-CoV-2 [8]) was 13 and the “average in vitro IC50 from all cell types tested, as dose” value (SARS-CoV-2 [8]; 2-compartment model for a 70 kg adult, water volumes 42 L) was 0.01 mg/kg. The IC50 (SARS-CoV-2 [8]; Severe acute respiratory syndrome coronavirus 2, n = 22, read-out: average IC50 for all viral testing in all cell lines and MOIs) was 47 ± 5 nM, the “SI calculated with the average CellTox Green” value (SARS-CoV-2 [8]; average CC50 / average IC50) was greater than 106 and the IC50 (SARS-CoV-2 [9]) was 39 nM. The CC50 at 72 h [10] was 173 nM, the CC50 at 72 h [11] was 1770 nM and the CC50 at 72 h [12] was 487 nM. The CC50 at 72 h [13] was 439 nM, the CC50 [14] was 617 ± 181 nM and the CC50 (multiple cell types [15]) was 607 ± 182 nM. For the same compound, the IC50 (KCNH2 (hERG)) was greater than 10000 nM, the “effect on the KCNH2 (hERG)” value (KCNH2 (hERG); 10 μM) was “had no effect” and the AMES genotoxicity test (Salmonella typhimurium; 1 mg/mL [3.2 mM] high test concentration) was greater than 1 mg/mL. For the same compound, the bacterial mutagenicity (Salmonella typhimurium; up to 3.2 mM) was “no evidence of enhanced bacterial mutagenicity”, the solubility at 2 h [16] was no less than 500 µM and the IC50 [17] was “nanomolar range”. For the same compound, the CC50 (in vitro) was greater than 5000 nM, the half-life in blood ([18]; 3H-labeled sangivamycin, i.p. 8 mg/kg) was 50 h and the “drug-derived radioactivity accounted for in the urine” value ([18]; over a period of 12 days) was 40%. The “Ratio CellTox Green/CellTiter-Glo” value [19] was greater than 10.3 and the “Ratio CellTox Green/CellTiter-Glo, Average” value (multiple cell types [20]) was greater than 12.2 ± 3.78.
